Earlier results in patent US20260242330A1, “USE OF AN AMANTADINE MONONITRATE COMPOUND IN MANUFACTURE OF A MEDICAMENT FOR THE PREVENTION AND TREATMENT OF HYPERTENSION” (GUANGZHOU MAGPIE PHARMACEUTICALS CO., LTD., priority 2022, published 2026).

Tested on: 24-hour blood pressure in primary hypertension
Details: cited from earlier work

Compound	average 24-hour dynamic diastolic pressure decrease	average 24-hour dynamic systolic pressure decrease
CCOC(=O)[C@H](CCc1ccccc1)N[C@H]1CCc2ccccc2N(CC(=O)O)C1=O [benazepril]	3.33 mmHg	6.74 mmHg
COCCc1ccc(OCC(O)CNC(C)C)cc1 (centres unmarked) [metoprolol]	4.6 mmHg	6.66 mmHg
Cc1cccc(Nc2ccncc2S(=O)(=O)NC(=O)NC(C)C)c1 [tolasemide]	2.42 mmHg	5.92 mmHg
CCCCC(=O)N(Cc1ccc(-c2ccccc2-c2nnn[nH]2)cc1)[C@H](C(=O)O)C(C)C [valsartan]	6.04 mmHg	8.08 mmHg
